Among the data in PubChem BioAssay (NCI) are GI50 and TGI values, retold here.

SMILES strings stand for the structures. Where “and” joins values, the source holds several entries; their conditions need not be identical. Equal values may be shown once.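 Each compound was tested at five concentrations against cells in 96-well plates for 48 hours. GI50: concentration for 50% inhibition of growth. TGI: concentration producing complete growth inhibition.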

Some test systems named below: SK-MEL-2 melanoma; IGROV1 ovarian; COLO 205 colon; CAKI-1 renal; 786-0 renal; HCC-2998 colon; T-47D breast; RXF 393 renal; PC-3 prostate; RPMI-8226 leukemia.
Common to all, as to assay: inhibition of tumour cell growth, NCI panel, 48 h

In the case of `CCN1CCN(c2nc(NNC(=O)c3ccccc3)nc(N3CCN(C(c4ccccc4)c4ccccc4)CC3)n2)CC1`, the GI50 with SK-MEL-2 melanoma was 2.4 µM; with IGROV1 ovarian it was 3.09 µM; in the test on COLO 205 colon, 1.9 µM; with CAKI-1 renal, 2.21 µM; in the test with 786-0 renal, 1.82 µM; in the test with HCC-2998 colon, 1.95 µM. Further, the GI50 in the test on T-47D breast is 3.16 µM; with RXF 393 renal, 2.56 µM; in the test on PC-3 prostate it was 1.9 µM; with RPMI-8226 leukemia, 1.65 µM. Further, the TGI was found to be 5.67 µM in the test on SK-MEL-2 melanoma; 12.8 µM in the test with IGROV1 ovarian; 3.83 µM in the test with COLO 205 colon; 5.76 µM in the test with CAKI-1 renal; 3.47 µM with 786-0 renal; 4.08 µM with HCC-2998 colon. Besides, the TGI came out at 31.2 µM in the test on T-47D breast, 7.57 µM in the test on RXF 393 renal, 7.57 µM in the test on PC-3 prostate and 4.1 µM with RPMI-8226 leukemia.
Turning to `CC1OC(OC2C(O[C@H]3CC[C@@]4(C)C(=CC[C@H]5[C@@H]6C[C@@H]7O[C@]8(CC[C@@H](C)CO8)[C@@H](C)[C@@H]7[C@@]6(C)CC[C@@H]54)C3)OC(CO)C(OC3OC(CO)C(O)C3O)C2O)C(O)C(O)C1O` (stereo partly drawn), the GI50 in the test on SK-MEL-2 melanoma was 1.46 µM; in the test with IGROV1 ovarian, 0.45 µM; in the test with COLO 205 colon, 0.381 µM; in the test with CAKI-1 renal, 0.602 µM; with 786-0 renal, 0.221 µM; in the test on T-47D breast, 1.39 µM. Besides, the values for the GI50 in the test with RXF 393 renal, in the test on PC-3 prostate and with RPMI-8226 leukemia were 0.294 µM, 0.533 µM and 0.212 µM, respectively. Moreover, the TGI is 1.82 µM and 2.78 µM in the test with SK-MEL-2 melanoma; 1.61 µM and 1.62 µM in the test with IGROV1 ovarian; 1.24 µM and 1.29 µM with COLO 205 colon; 1.76 µM and 1.86 µM in the test on CAKI-1 renal; 1.34 µM and 0.464 µM with 786-0 renal; 1.19 µM in the test on HCC-2998 colon. Moreover, the TGI in the test with T-47D breast was 2.68 µM; in the test on RXF 393 renal, 1.83 µM and 0.962 µM; with PC-3 prostate, 1.48 µM and 1.78 µM; in the test on RPMI-8226 leukemia, 2.71 µM and 0.586 µM.
On to `C=C(Cn1c2ccccc2c(=O)c2ccccc21)c1ccc(C(=O)Nc2ccccc2N)cc1`, for which the GI50 was more than 100 µM in the test with SK-MEL-2 melanoma; more than 19.8 µM in the test with IGROV1 ovarian; 16.2 µM in the test on COLO 205 colon; more than 26 µM in the test with CAKI-1 renal; 1.89 µM with 786-0 renal; 3.67 µM in the test with HCC-2998 colon. Besides, the GI50 in the test on T-47D breast was 2.8 µM; in the test on RXF 393 renal, more than 100 µM; in the test on PC-3 prostate, 0.761 µM; in the test with RPMI-8226 leukemia, 0.36 µM. Further, the TGI in the test with SK-MEL-2 melanoma is more than 100 µM; with IGROV1 ovarian, more than 100 µM; with COLO 205 colon it was more than 100 µM; in the test with CAKI-1 renal, more than 100 µM; in the test on 786-0 renal it was more than 100 µM; in the test on HCC-2998 colon it was more than 61.2 µM. Also, the TGI in the test with T-47D breast is more than 80 µM; in the test with RXF 393 renal it was more than 100 µM; with PC-3 prostate, more than 100 µM; in the test with RPMI-8226 leukemia, 3.06 µM.
In the case of `Oc1ccccc1C=Nc1nc(OCc2ccccc2)nc2[nH]ncc12`, the GI50 was 32.2 µM in the test with SK-MEL-2 melanoma; 34.8 µM with IGROV1 ovarian; 22.2 µM with COLO 205 colon; 14.2 µM with CAKI-1 renal; 34.8 µM in the test with 786-0 renal; 20.2 µM with HCC-2998 colon. For the same compound, the GI50 is 14 µM in the test with T-47D breast, 4.56 µM with RXF 393 renal, 16.8 µM in the test with PC-3 prostate and 14.4 µM in the test on RPMI-8226 leukemia. Also, the TGI in the test with SK-MEL-2 melanoma was more than 100 µM; in the test with IGROV1 ovarian it was more than 100 µM; with COLO 205 colon, 49.6 µM; with CAKI-1 renal, 50.5 µM; in the test with 786-0 renal it was more than 100 µM; in the test with HCC-2998 colon it was 38.1 µM. For the same compound, the TGI came to 46.3 µM in the test on T-47D breast, 33.4 µM in the test with RXF 393 renal, 51.4 µM with PC-3 prostate and 43.5 µM in the test with RPMI-8226 leukemia.
In the case of `NC(N)=N/N=C/c1c(-c2ccncc2)nc2sc(Cl)cn12`, the GI50 in the test on SK-MEL-2 melanoma is 11.8 µM; with IGROV1 ovarian, 42.7 µM; in the test on COLO 205 colon, 4.21 µM; in the test with CAKI-1 renal it was 18.1 µM; with 786-0 renal it was 6.63 µM; in the test on HCC-2998 colon it was 3.29 µM. Moreover, the GI50 is 28.6 µM in the test on T-47D breast, 15.2 µM in the test on RXF 393 renal, 5.8 µM in the test on PC-3 prostate and 6.52 µM with RPMI-8226 leukemia. In addition, the TGI was more than 33.7 µM in the test on SK-MEL-2 melanoma; more than 100 µM in the test on IGROV1 ovarian; 34.7 µM in the test with CAKI-1 renal; 17 µM in the test on 786-0 renal; 9.36 µM in the test on HCC-2998 colon; 56.6 µM in the test on T-47D breast. Besides, the results for the TGI with RXF 393 renal, in the test with PC-3 prostate and with RPMI-8226 leukemia were 33.2 µM, 18.8 µM and 21.1 µM, respectively.
Regarding `COC(=O)[C@H](Cc1cn(C)cn1)NC(=O)[C@@H](NC(=O)Nc1cc(C(F)(F)F)cc(C(F)(F)F)c1)C(C)C`, the GI50 is more than 10 µM with SK-MEL-2 melanoma; 6.15 µM in the test on IGROV1 ovarian; 4.94 µM with COLO 205 colon; more than 10 µM with CAKI-1 renal; more than 10 µM in the test on 786-0 renal; 1.81 µM in the test with HCC-2998 colon. Besides, the GI50 is 3.14 µM with T-47D breast, 1.96 µM in the test on RXF 393 renal, 4.35 µM in the test with PC-3 prostate and 3.03 µM with RPMI-8226 leukemia. Also, the TGI is more than 10 µM in the test with SK-MEL-2 melanoma; more than 10 µM in the test on IGROV1 ovarian; more than 10 µM with COLO 205 colon; more than 10 µM with CAKI-1 renal; more than 10 µM with 786-0 renal; 3.46 µM in the test on HCC-2998 colon. The TGI with T-47D breast was more than 10 µM; with RXF 393 renal, 4.08 µM; with PC-3 prostate it was more than 10 µM; in the test on RPMI-8226 leukemia it was more than 10 µM.
For `CCSc1ncc(Br)c(Sc2nc(N)nc3nc[nH]c23)n1`, the GI50 is 4.19 µM in the test on SK-MEL-2 melanoma; 2.7 µM in the test on IGROV1 ovarian; 15.1 µM in the test on COLO 205 colon; 3.43 µM in the test on CAKI-1 renal; 3.22 µM in the test on 786-0 renal; 2.78 µM in the test with HCC-2998 colon. Moreover, the GI50 in the test on T-47D breast was 3.07 µM; with RXF 393 renal it was 5.37 µM; with PC-3 prostate, 4.77 µM; in the test with RPMI-8226 leukemia, 3.87 µM. In addition, the TGI with SK-MEL-2 melanoma is more than 100 µM; in the test with IGROV1 ovarian it was 30 µM; with COLO 205 colon, 52.6 µM; in the test on CAKI-1 renal, more than 100 µM; with 786-0 renal, more than 100 µM; with HCC-2998 colon, 32.2 µM. The TGI with T-47D breast, in the test on RXF 393 renal, with PC-3 prostate and with RPMI-8226 leukemia was more than 100 µM each time.
